In US20060003980A1, “Cobalt(II) complexes as protein tyrosine kinase inhibitors” (priority 2004, published 2006):
“Also recorded” adds a separate entry of the source. Read-outs that look alike come from different tables or passages of the source.

Tests used:
cell growth = test: Cell growth inhibition (FIG. 1); assay type: cell-based
Excerpt: FIG. 1 graphically illustrates that a stable cobalt-tyrosineamide identified as complex no.
This indicates a requirement for both the tyrosine amide moiety and for the metal moiety.

Csk = target: T1, Csk (Homo sapiens, UniProt P41240); test: Tyrosine kinase activity of Csk using poly E4Y and 32P-ATP; assay type: biochemical
T1 construct: GST (glutathione-S-transferase); made in house; host or cells: E. coli (pGEX vector)
Description: (§1) Recombinant human Src was expressed using the baculovirus-insect cell system and purified as published (Budde et al., 1993). Recombinant Csk and the FGF receptor (FGFr) were expressed as glutathione-S-transferase fusion proteins using the pGEX expression vector and E. coli, and purified as described (Sun et al., 1995).
(§2) The tyrosine kinase activity of Src, Csk and FGFr was determined using poly E4Y and ^32P-ATP. Briefly, enzymes were assayed in a reaction mixture consisting of 0.15 M EPPS-NaOH (pH 8.0) with 6 mM MgCl2, 0.2 mM γ^32P-ATP (0.2-0.4 mCi/μmol), 10% glycerol, 0.1% Triton X-100, and poly E4Y. Poly E4Y is a synthetic peptide whose phosphorylation is measured in this assay by the addition of the radioactively labeled phosphate from the ATP (Budde et al., 1994). For screening assays, 50 μg/ml poly E4Y was used.

FGF receptor (FGFr) = FGF receptor (FGFr) (Homo sapiens, UniProt P11362); test: Tyrosine kinase activity of FGFr using poly E4Y and 32P-ATP; assay type: biochemical
Description: Recombinant human Src was expressed using the baculovirus-insect cell system and purified as published (Budde et al., 1993). Recombinant Csk and the FGF receptor (FGFr) were expressed as glutathione-S-transferase fusion proteins using the pGEX expression vector and E. coli, and purified as described (Sun et al., 1995). The tyrosine kinase activity of Src, Csk and FGFr was determined using poly E4Y and ^32P-ATP. […] Poly E4Y is a synthetic peptide whose phosphorylation is measured in this assay by the addition of the radioactively labeled phosphate from the ATP (Budde et al., 1994). For screening assays, 50 μg/ml poly E4Y was used.

Src = Src (Homo sapiens, UniProt P12931); test: Tyrosine kinase activity of Src using poly E4Y and 32P-ATP; assay type: biochemical
Description: as §1, §2

[1] = * = Extrapolated value from the graph

T1 sequence (P41240 whole entry, species assumed): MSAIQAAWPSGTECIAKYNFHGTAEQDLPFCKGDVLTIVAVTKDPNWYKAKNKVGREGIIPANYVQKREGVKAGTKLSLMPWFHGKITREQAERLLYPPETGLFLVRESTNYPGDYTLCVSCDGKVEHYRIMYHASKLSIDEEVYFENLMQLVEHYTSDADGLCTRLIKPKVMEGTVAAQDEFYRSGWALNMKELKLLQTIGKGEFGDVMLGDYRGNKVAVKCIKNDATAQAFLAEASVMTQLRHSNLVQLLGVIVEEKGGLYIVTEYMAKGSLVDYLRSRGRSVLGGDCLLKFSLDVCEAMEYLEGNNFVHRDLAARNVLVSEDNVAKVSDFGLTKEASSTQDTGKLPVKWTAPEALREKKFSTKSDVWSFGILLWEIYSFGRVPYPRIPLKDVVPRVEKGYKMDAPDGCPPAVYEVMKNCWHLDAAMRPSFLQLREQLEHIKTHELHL
FGF receptor (FGFr), sequence (P11362 398-822): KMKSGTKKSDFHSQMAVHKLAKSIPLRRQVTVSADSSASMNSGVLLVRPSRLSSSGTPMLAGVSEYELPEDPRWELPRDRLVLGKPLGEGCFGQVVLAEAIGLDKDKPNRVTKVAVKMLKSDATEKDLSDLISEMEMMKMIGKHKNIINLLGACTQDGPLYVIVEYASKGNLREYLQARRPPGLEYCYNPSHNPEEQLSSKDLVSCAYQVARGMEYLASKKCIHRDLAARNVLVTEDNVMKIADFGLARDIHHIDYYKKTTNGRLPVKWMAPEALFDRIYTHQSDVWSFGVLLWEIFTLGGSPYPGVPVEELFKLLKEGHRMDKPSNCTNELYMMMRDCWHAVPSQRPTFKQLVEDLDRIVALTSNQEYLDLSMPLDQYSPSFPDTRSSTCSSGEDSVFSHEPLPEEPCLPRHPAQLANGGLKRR

For `NC(=O)[C@@H](N)Cc1ccc(O)cc1` [tyrosine amide], the cell growth inhibition (cell growth) was “not inhibitory; also recorded: neither free metal nor the tyrosine amide were inhibitory”.

For `NC(=O)CCC(N)C(=O)[O][Co][Cl]` (centres unmarked) [Complex 20], the IC50 (Csk; [1]) was 281 µM, the IC50 (FGF receptor (FGFr)) was 100 µM and the IC50 (Src) was 57 µM.

In the case of “Co[N,N-bis(salicylidene)dianiline] [Complex 39]”, the IC50 (FGF receptor (FGFr); [1]) is reported as 155 µM and the IC50 (Src; [1]) is reported as 133 µM.

Molecule `CC(C)CC(N)C(N)=O.[Cl-].[Cl-].[Co+2]` (centres unmarked) [Complex 19] has an IC50 (FGF receptor (FGFr)) of 45 µM and an IC50 (Src) of 35 µM.

Molecule `NCCN.[Cl-].[Co+2].[OH-]` [Complex 24] has an IC50 (FGF receptor (FGFr)) of 24 µM and an IC50 (Src; [1]) of 215 µM.

Work on `NC(=O)CCC(N)C(=O)[O][Co][Cl]` (centres unmarked) [Complex 21] yielded an IC50 (Csk; [1]) of 389 µM, an IC50 (FGF receptor (FGFr)) of 93 µM and an IC50 (Src) of 58 µM.

With `CC(C)CC(N)C(N)=O.[Cl-].[Cl-].[Co+2]` (centres unmarked) [Complex 18] the IC50 (Csk; [1]) was 211 µM, the IC50 (FGF receptor (FGFr)) was 38 µM and the IC50 (Src; [1]) was 105 µM.

`NCC(=O)NO.[OH][Co][OH]` [Complex 5] gave an IC50 (Src; [1]) of 259 µM.

`O=Cc1ccccc1[O-].O=Cc1ccccc1[O-].[Co+2]` [Complex 44, Co(salicylaldehyde)2] was tested, and the IC50 (FGF receptor (FGFr); [1]) was 148 µM and the IC50 (Src) was 113 µM.

Molecule `CC(=O)C=C(C)[O-].CC(=O)C=C(C)[O-].[Co+2]` [Complex 41] has an IC50 (FGF receptor (FGFr); [1]) of 233 µM and an IC50 (Src; [1]) of 177 µM.

`C[SH]1CCC(N)C(=O)[N](O)[Co]1[OH]` (racemic) [Complex 4] gave an IC50 (Src; [1]) of 176 µM.

Molecule `NCCNc1cccc2ccccc12.[Cl-].[Cl-].[Co+2]` [Complex 26] has an IC50 (FGF receptor (FGFr)) of 39 µM and an IC50 (Src) of 65 µM.

Molecule `[Co+2].[O-]c1ccccc1C=NCCN=Cc1ccccc1[O-]` [Complex 35, Co[N,N-bis(salicylidene)ethylenediamine]] has an IC50 (Csk) of 92 µM, an IC50 (FGF receptor (FGFr)) of 3 µM and an IC50 (Src) of 108 µM.

With `O=C([O][Co][O]C(=O)c1ccccc1S)c1ccccc1S` [Complex 34] the IC50 (FGF receptor (FGFr)) was 125 µM.

With `O=C([O-])c1ccccc1O.O=C([O-])c1ccccc1O.[Co+2]` [Complex 32] the IC50 (FGF receptor (FGFr)) was 182 µM.

Work on `NC(=O)C(N)Cc1c[nH]c2ccccc12.[O-][Cl+3]([O-])([O-])[O][Co][O][Cl+3]([O-])([O-])[O-]` (centres unmarked) [Complex 13] yielded an IC50 (Csk) of 77 µM, an IC50 (FGF receptor (FGFr)) of 54 µM and an IC50 (Src) of 24 µM.

Molecule `NC(=O)C(N)Cc1ccc(O)cc1.[OH][Co][Cl]` (centres unmarked) [Complex 15] has an IC50 (Csk; [1]) of 330 µM, an IC50 (FGF receptor (FGFr); [1]) of 180 µM and an IC50 (Src) of 46 µM.

`NCCC(=O)NO.[OH][Co][OH]` [Complex 8] showed an IC50 (Csk; [1]) of 150 µM and an IC50 (Src) of 100 µM.

For `NC(=O)CCC(N)C(N)=O.[Cl][Co][Cl]` (centres unmarked) [Complex 22], the IC50 (Csk; [1]) was 361 µM, the IC50 (FGF receptor (FGFr)) was 46 µM and the IC50 (Src) was 71 µM.

Work on `N[C@H](c1ccccc1)[C@H](N)c1ccccc1.N[C@H](c1ccccc1)[C@H](N)c1ccccc1.[Cl][Co][Cl].[Cl][Co][Cl]` [Complex 31] yielded an IC50 (Csk) of 50 µM, an IC50 (FGF receptor (FGFr)) of 98 µM and an IC50 (Src) of 55 µM.

`CN1CCCN=Cc2ccccc2[O][Co][O]c2ccccc2C=NCCC1` [Complex 40] was tested, and the IC50 (FGF receptor (FGFr)) was 41 µM and the IC50 (Src) was 95 µM.

Work on `CC(=O)C=C([O-])c1ccccc1.CC(=O)C=C([O-])c1ccccc1.[Co+2]` [Complex 43] yielded an IC50 (FGF receptor (FGFr)) of 83 µM and an IC50 (Src) of 47 µM.

With `[Cl][Co]([Cl])([PH](c1ccccc1)(c1ccccc1)c1ccccc1)[PH](c1ccccc1)(c1ccccc1)c1ccccc1` [Complex 37] the IC50 (FGF receptor (FGFr)) was 76 µM.

For `NCC(N)=O.[Cl-].[Cl][Co][Cl].[Na+]` [Complex 17], the IC50 (Csk; [1]) was 218 µM, the IC50 (FGF receptor (FGFr)) was 22 µM and the IC50 (Src) was 56 µM.

Work on `N[C@H](c1ccccc1)[C@@H](N)c1ccccc1.N[C@H](c1ccccc1)[C@@H](N)c1ccccc1.[Cl][Co][Cl].[Cl][Co][Cl]` [Complex 27] yielded an IC50 (Csk) of 59 µM, an IC50 (FGF receptor (FGFr)) of 17 µM and an IC50 (Src) of 7 µM.

Work on `O=C(NO)c1ccccc1O.O=C(NO)c1ccccc1O.[Cl][Co][Cl]` [Complex 33] yielded an IC50 (Csk) of 92 µM, an IC50 (FGF receptor (FGFr)) of 2 µM and an IC50 (Src) of 6 µM.

Work on `CC(=O)[O-].NC(=O)C(N)Cc1ccc(O)cc1.[Co+2].[OH-]` (centres unmarked) [Complex 16] yielded an IC50 (Src; [1]) of 285 µM.

`Nc1ccccc1N.[Cl-].[Cl-].[Co+2]` [Complex 25] was tested, and the IC50 (Csk; [1]) was 210 µM, the IC50 (FGF receptor (FGFr)) was 14 µM and the IC50 (Src) was 9 µM.

In the case of `[Cl][Co]1([Cl])[PH](c2ccccc2)(c2ccccc2)CC[PH]1(c1ccccc1)c1ccccc1` [Complex 38], the IC50 (Src) is reported as 66 µM.

In the case of `NC(=O)C(N)Cc1ccc(O)cc1.[Cl-].[Cl-].[Co+2]` (centres unmarked) [Complex 14], the IC50 (FGF receptor (FGFr)) is reported as 20 µM and the IC50 (Src) is reported as 28 µM.

With `N[C@@H]1CCCC[C@H]1N.[Cl-].[Cl-].[Co+2]` (racemic) [Complex 30] the IC50 (FGF receptor (FGFr); [1]) was 123 µM and the IC50 (Src) was 79 µM.

For `NC(Cc1ccc(O)cc1)C(=O)NO.[Co+2].[O-][Cl+3]([O-])([O-])[O-].[O-][Cl+3]([O-])([O-])[O-]` (centres unmarked) [Complex 1], the IC50 (FGF receptor (FGFr)) was 14 µM.

With `O=C(C=C(O)C(F)(F)F)C(F)(F)F` [Complex 42] the IC50 (Src) was 105 µM.

In the case of `[Co+2].[O-]c1ccccc1C=Nc1ccccc1N=Cc1ccccc1[O-]` [Complex 36, Co[N,N-bis(salicylidene)1,2-phenylenediamine]], the IC50 (Csk; [1]) is reported as 128 µM, the IC50 (FGF receptor (FGFr)) is reported as 1 µM and the IC50 (Src) is reported as 28 µM.
